ChEMBL document CHEMBL1132016, “Catalytic activity of carboxypeptidase B and of carboxypeptidase Y with anisylazoformyl substrates” (Bioorg Med Chem Lett, 1999)

Assays:
[1] = Ratio of kinetic constants (kcat/km) for the inhibition against carboxypeptidase B
[2] = biological target: T1, Carboxypeptidase B (Sus scrofa) (UniProt P09955); test: Substrate kinetic value (kcat) against porcine carboxypeptidase B
T1 sequence (whole entry): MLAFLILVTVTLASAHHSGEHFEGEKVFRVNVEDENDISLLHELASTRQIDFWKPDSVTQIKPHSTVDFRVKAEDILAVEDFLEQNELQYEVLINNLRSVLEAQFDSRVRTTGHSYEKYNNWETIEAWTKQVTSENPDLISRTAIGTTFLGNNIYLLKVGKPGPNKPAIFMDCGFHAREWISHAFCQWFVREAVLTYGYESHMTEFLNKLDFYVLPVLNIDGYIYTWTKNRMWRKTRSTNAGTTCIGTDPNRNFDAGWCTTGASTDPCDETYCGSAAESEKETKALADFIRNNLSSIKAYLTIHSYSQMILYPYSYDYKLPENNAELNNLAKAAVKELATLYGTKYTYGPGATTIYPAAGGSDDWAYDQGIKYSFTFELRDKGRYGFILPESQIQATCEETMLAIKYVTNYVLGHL

[3] = substrate: COc1ccc(/N=N/C(=O)NC(CCCCN)C(=O)O)cc1; test: (§1) Affinity to porcine carboxypeptidase B at pH 7.9
[4] = substrate: C[C@@H](NC(=O)/C=C/c1ccco1)C(=O)N[C@@H](CCCCN)C(=O)O; test: as §1

Ratio [1] | k cat [2] | Molecule | Km [3] | Km [4]
36000 M⁻¹ s⁻¹ | – | C[C@@H](NC(=O)/C=C/c1ccco1)C(=O)N[C@@H](CCCCN)C(=O)O | – | –
95000 M⁻¹ s⁻¹ | 76 s⁻¹ | COc1ccc(/N=N/C(=O)NC(CCCCN)C(=O)O)cc1 (stereo not given) | – | –
– | – | Carboxypeptidase B (Sus scrofa), P09955 (protein) MLAFLILVTVTLASAHHSGEHFEGEKVFRVNVEDENDISLLHELASTRQIDFWKPDSVTQIKPHSTVDFRVKAEDILAVEDFLEQNELQYEVLINNLRSVLEAQFDSRVRTTGHSYEKYNNWETIEAWTKQVTSENPDLISRTAIGTTFLGNNIYLLKVGKPGPNKPAIFMDCGFHAREWISHAFCQWFVREAVLTYGYESHMTEFLNKLDFYVLPVLNIDGYIYTWTKNRMWRKTRSTNAGTTCIGTDPNRNFDAGWCTTGASTDPCDETYCGSAAESEKETKALADFIRNNLSSIKAYLTIHSYSQMILYPYSYDYKLPENNAELNNLAKAAVKELATLYGTKYTYGPGATTIYPAAGGSDDWAYDQGIKYSFTFELRDKGRYGFILPESQIQATCEETMLAIKYVTNYVLGHL | 810 µM | 1160 µM
